Assay results: US6737383B1, “Herbicidal oxadiazolidines” (priority 1999, dated 2004)

Columns and labels:
bedstraw = assay: Test B pre/postemergence bedstraw; type: in vivo, Galium aparine
Method in brief: (§1)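 Herbicidal effect was estimated by eye on a ten-point control scale after plants spent twelve to sixteen days in a greenhouse following soil or foliar treatment. Foliar sprays targeted plants at one to four leaves; all doses were formulated in a non-phytotoxic solvent with surfactant.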

blackgrass = assay: Test B pre/postemergence blackgrass; type: in vivo, Alopecurus myosuroides
Method in brief: as §1

surinam grass = assay: Test B pre/postemergence surinam grass; type: in vivo, Brachiaria decumbens
Method in brief: as §1

cocklebur = assay: Test B pre/postemergence cocklebur; type: in vivo, Xanthium strumarium
Method in brief: as §1

corn = assay: Test B pre/postemergence corn; type: in vivo, Zea mays
Method in brief: as §1

crabgrass = assay: Test B pre/postemergence crabgrass; type: in vivo, Digitaria sanguinalis
Method in brief: as §1

pigweed = assay: Test B pre/postemergence pigweed; type: in vivo, Amaranthus retroflexus
Method in brief: as §1

rape = assay: Test B pre/postemergence rape; type: in vivo, Brassica napus
Method in brief: as §1

soybean = assay: Test B pre/postemergence soybean; type: in vivo, Glycine max
Method in brief: as §1

sugar beet = assay: Test B pre/postemergence sugar beet; type: in vivo, Beta vulgaris
Method in brief: as §1

velvetleaf = assay: Test B pre/postemergence velvetleaf; type: in vivo, Abutilon theophrasti
Method in brief: as §1

wheat = assay: Test B pre/postemergence wheat; type: in vivo, Triticum aestivum
Method in brief: as §1

wild oat = assay: Test B pre/postemergence wild oat; type: in vivo, Avena fatua
Method in brief: as §1

purple nutsedge = assay: Test B pre/postemergence purple nutsedge; type: in vivo, Cyperus rotundus
Method in brief: as §1

smallflower flatsedge = assay: Test B flood test smallflower flatsedge; type: in vivo, Cyperus difformis
Method in brief: (§2)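 Each value is a visual injury score relative to controls, with 10 meaning complete control and 0 no effect. Evaluation took place twelve to sixteen days after the 2-leaf-stage plants were treated and kept in the greenhouse.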

bamyardgrass = assay: Test B flood test barnyardgrass; type: in vivo, Echinochloa crus-galli
Method in brief: as §2

[1] = Postemergence, Rate 62 g/ha, scale 0 to 10, 0 is no effect, 10 is complete control
[2] = Postemergence, Rate 250 g/ha, scale 0 to 10, 0 no effect, 10 complete control
[3] = Preemergence, Rate 62 g/ha, scale 0 to 10, 0 is no effect, 10 is complete control
[4] = Preemergence, Rate 125 g/ha, scale 0 to 10 (0 no effect, 10 complete control)
[5] = Preemergence, Rate 250 g/ha, scale of 0 to 10 where 0 is no effect and 10 is complete control
[6] = Preemergence, Rate 500 g/ha, scale 0 (no effect) to 10 (complete control)
[7] = Rate 125 g/ha, Postemergence, scale 0 to 10, 0 no effect, 10 complete control
[8] = Rate 500 g/ha, Postemergence, 0 to 10 scale (0 no effect, 10 complete control)
[9] = Rate 125 g/ha, Postemergence section (flood test species), scale 0 to 10, 0 no effect, 10 complete control
[10] = flood test, listed under Postemergence, Rate 250 g/ha, scale 0 to 10, 0 no effect, 10 complete control

Cc1ccccc1-n1c(=O)on(C(=O)N(c2ccc(F)cc2F)C(C)C)c1=O [Compound 25]
Bedstraw plant response rating (bedstraw; [1]): 4 | Bedstraw plant response rating (bedstraw; [2]): 7 | Plant response rating, Bedstraw (bedstraw; [3]): 0 | Plant response rating, Bedstraw (bedstraw; [4]): 0 | Plant response rating, Bedstraw (bedstraw; [5]): 0 | Bedstraw plant response rating (bedstraw; [6]): 3 | Bedstraw plant response rating (bedstraw; [7]): 4 | Bedstraw plant response rating (bedstraw; [8]): 7 | Blackgrass plant response rating (blackgrass; [1]): 4 | Blackgrass plant response rating (blackgrass; [2]): 6 | Plant response rating, Blackgrass (blackgrass; [3]): 3 | Plant response rating, Blackgrass (blackgrass; [4]): 3 | Plant response rating, Blackgrass (blackgrass; [5]): 8 | Blackgrass plant response rating (blackgrass; [6]): 8 | Blackgrass plant response rating (blackgrass; [7]): 5 | Blackgrass plant response rating (blackgrass; [8]): 7 | B. signalgrass plant response rating (surinam grass; [1]): 0 | B. signalgrass plant response rating (surinam grass; [2]): 0 | Plant response rating, B. signalgrass (surinam grass; [3]): 0 | Plant response rating, B. signalgrass (surinam grass; [4]): 0 | Plant response rating, B. signalgrass (surinam grass; [5]): 7 | B. signalgrass plant response rating (surinam grass; [6]): 7 | B. signalgrass plant response rating (surinam grass; [7]): 0 | B. signalgrass plant response rating (surinam grass; [8]): 2 | Cocklebur plant response rating (cocklebur; [1]): 0 | Cocklebur plant response rating (cocklebur; [2]): 2 | Plant response rating, Cocklebur (cocklebur; [3]): 0 | Plant response rating, Cocklebur (cocklebur; [4]): 0 | Plant response rating, Cocklebur (cocklebur; [5]): 0 | Cocklebur plant response rating (cocklebur; [6]): 0 | Cocklebur plant response rating (cocklebur; [7]): 2 | Cocklebur plant response rating (cocklebur; [8]): 5 | Corn plant response rating (corn; [1]): 0 | Corn plant response rating (corn; [2]): 0 | Plant response rating, Corn (corn; [3]): 0 | Plant response rating, Corn (corn; [4]): 0 | Plant response rating, Corn (corn; [5]): 0 | Corn plant response rating (corn; [6]): 0 | Corn plant response rating (corn; [7]): 0 | Corn plant response rating (corn; [8]): 0 | Crabgrass plant response rating (crabgrass; [1]): 2 | Crabgrass plant response rating (crabgrass; [2]): 9 | Plant response rating, Crabgrass (crabgrass; [3]): 5 | Plant response rating, Crabgrass (crabgrass; [4]): 8 | Plant response rating, Crabgrass (crabgrass; [5]): 10 | Crabgrass plant response rating (crabgrass; [6]): 10 | Crabgrass plant response rating (crabgrass; [7]): 7 | Crabgrass plant response rating (crabgrass; [8]): 9 | Redroot pigweed plant response rating (pigweed; [1]): 0 | Redroot pigweed plant response rating (pigweed; [2]): 0 | Plant response rating, Redroot pigweed (pigweed; [3]): 0 | Plant response rating, Redroot pigweed (pigweed; [4]): 0 | Plant response rating, Redroot pigweed (pigweed; [5]): 8 | Redroot pigweed plant response rating (pigweed; [6]): 8 | Redroot pigweed plant response rating (pigweed; [7]): 0 | Redroot pigweed plant response rating (pigweed; [8]): 4 | Rape plant response rating (rape; [1]): 0 | Rape plant response rating (rape; [2]): 0 | Plant response rating, Rape (rape; [3]): 0 | Plant response rating, Rape (rape; [4]): 0 | Plant response rating, Rape (rape; [5]): 0 | Rape plant response rating (rape; [6]): 0 | Rape plant response rating (rape; [7]): 0 | Rape plant response rating (rape; [8]): 0 | Soybean plant response rating (soybean; [1]): 2 | Soybean plant response rating (soybean; [2]): 3 | Plant response rating, Soybean (soybean; [3]): 0 | Plant response rating, Soybean (soybean; [4]): 0 | Plant response rating, Soybean (soybean; [5]): 0 | Soybean plant response rating (soybean; [6]): 0 | Soybean plant response rating (soybean; [7]): 3 | Sugarbeets plant response rating (sugar beet; [1]): 0 | Sugarbeets plant response rating (sugar beet; [2]): 0 | Plant response rating, Sugarbeets (sugar beet; [3]): 0 | Plant response rating, Sugarbeets (sugar beet; [4]): 0 | Plant response rating, Sugarbeets (sugar beet; [5]): 0 | Sugarbeets plant response rating (sugar beet; [6]): 2 | Sugarbeets plant response rating (sugar beet; [7]): 0 | Velvetleaf plant response rating (velvetleaf; [1]): 0 | Velvetleaf plant response rating (velvetleaf; [2]): 0 | Plant response rating, Velvetleaf (velvetleaf; [3]): 0 | Plant response rating, Velvetleaf (velvetleaf; [4]): 0 | Plant response rating, Velvetleaf (velvetleaf; [5]): 0 | Velvetleaf plant response rating (velvetleaf; [6]): 0 | Velvetleaf plant response rating (velvetleaf; [7]): 0 | Wheat plant response rating (wheat; [1]): 0 | Wheat plant response rating (wheat; [2]): 0 | Plant response rating, Wheat (wheat; [3]): 0 | Plant response rating, Wheat (wheat; [4]): 0 | Plant response rating, Wheat (wheat; [5]): 0 | Wheat plant response rating (wheat; [6]): 0 | Wheat plant response rating (wheat; [7]): 0 | Wild oats plant response rating (wild oat; [1]): 0 | Wild oats plant response rating (wild oat; [2]): 1 | Plant response rating, Wild oats (wild oat; [4]): 2 | Plant response rating, Wild oats (wild oat; [5]): 6 | Wild oats plant response rating (wild oat; [6]): 7 | Wild oats plant response rating (wild oat; [7]): 0 | Nutsedge plant response rating (purple nutsedge; [1]): 0 | Nutsedge plant response rating (purple nutsedge; [2]): 0 | Plant response rating, Nutsedge (purple nutsedge; [3]): 0 | Plant response rating, Nutsedge (purple nutsedge; [4]): 0 | Plant response rating, Nutsedge (purple nutsedge; [5]): 0 | Nutsedge plant response rating (purple nutsedge; [6]): 0 | Nutsedge plant response rating (purple nutsedge; [7]): 0 | S. Flatsedge plant response rating (smallflower flatsedge; [1]): 0 | S. Flatsedge plant response rating (smallflower flatsedge; [9]): 0 | S. Flatsedge plant response rating (smallflower flatsedge; [10]): 0 | Barnyardgrass plant response rating (bamyardgrass; [1]): 0 | Barnyardgrass plant response rating (bamyardgrass; [9]): 0 | Barnyardgrass plant response rating (bamyardgrass; Rate 500 g/ha, Postemergence section of Table B, 0 to 10 scale (0 no effect, 10 complete control)): 8 | Barnyardgrass plant response rating (bamyardgrass; [10]): 0
